# Experimental data taken from patent US10315992B2, “Tetracyline compounds” (Tetraphase Pharmaceuticals, Inc., priority 2012, dated 2019).
# Read-outs that look alike come from different tables or passages of the source.
# Legend:
# [1] = tested on: Staphylococcus aureus SA101 (ATCC 29213, MSSA); experiment: MIC assay, SA101; format: cell-based
# [2] = tested on: Staphylococcus aureus SA161 (HA-MRSA, tet(M)); experiment: MIC assay, SA161; format: cell-based; settings: Staphylococcus aureus, MRSA
# [3] = tested on: Staphylococcus aureus SA158 (tetracycline-resistant tet(K)); experiment: MIC assay, SA158; format: cell-based
# [4] = tested on: Enterococcus faecalis EF327 (wound isolate, tet(M)); experiment: MIC assay, EF327; format: cell-based
# [5] = tested on: Streptococcus pneumoniae SP106 (ATCC 49619); experiment: MIC assay, SP106; format: cell-based; settings: ATCC49619, read-out: MIC SP 106 49619
# [6] = tested on: Streptococcus pneumoniae SP160 (tet(M)); experiment: MIC assay, SP160; format: cell-based
# [7] = tested on: Streptococcus pyogenes SP312 (2009 clinical isolate, tet(M)); experiment: MIC assay, SP312; format: cell-based
# [8] = tested on: Haemophilus influenzae HI262 (tetracycline-resistant, ampicillin-resistant); experiment: MIC assay, HI262; format: cell-based; settings: read-out: MIC HI 262 33929
# [9] = tested on: Escherichia coli EC107 (ATCC 25922); experiment: MIC assay, EC107; format: cell-based
# [10] = tested on: Escherichia coli EC155 (tet(A)); experiment: MIC assay, EC155; format: cell-based; settings: Escherichia coli, read-out: MIC EC 155 tetA
# [11] = tested on: Enterobacter cloacae EC108 (ATCC 13047); experiment: MIC assay, EC108; format: cell-based; settings: ATCC13047, read-out: MIC ECI 108 13047
# [12] = tested on: Enterobacter cloacae EC603 (urine isolate); experiment: MIC assay, EC603; format: cell-based
# [13] = tested on: Escherichia coli EC878 (MG1655 tolC::kan); experiment: microbe, parasite or virus in culture; format: cell-based
# [14] = tested on: Proteus mirabilis PM112 (ATCC 35659); experiment: MIC assay, PM112; format: cell-based; settings: ATCC35659, read-out: MIC PM 112 35659
# [15] = tested on: Proteus mirabilis PM385 (urine ESBL+ isolate); experiment: MIC assay, PM385; format: cell-based
# [16] = tested on: Pseudomonas aeruginosa PA111 (ATCC 27853); experiment: MIC assay, PA111; format: cell-based; settings: ATCC27853, read-out: MIC PA 111 27853
# [17] = tested on: Pseudomonas aeruginosa PA669 (2009 tracheal aspirate isolate); experiment: MIC assay, PA669; format: cell-based
# [18] = tested on: Pseudomonas aeruginosa PA693 (2009 corneal scraping isolate); experiment: MIC assay, PA693; format: cell-based
# [19] = tested on: Pseudomonas aeruginosa PA1145 (strain used in murine pneumonia model); experiment: MIC assay, PA1145; format: cell-based
# [20] = tested on: Acinetobacter baumannii AB110 (ATCC 19606); experiment: MIC assay, AB110; format: cell-based; settings: ATCC19606, read-out: MIC AB 110 19606
# [21] = tested on: Stenotrophomonas maltophilia SM256 (cystic fibrosis isolate, MDR); experiment: MIC assay, SM256; format: cell-based
# [22] = tested on: Klebsiella pneumoniae KP457 (2009 ESBL+, CTX-M, OXA); settings: for MIC KP 457 CTX- M-15: K. pneumoniae ESBL+
# KP 194 7E+05 = experiment: MIC assay, KP194; settings: Table 5
# Protocol: (§1) Minimum Inhibitory Concentration (MIC) Assay
# (§2) MICs were determined according to the Clinical and Laboratory Standards Institute (CLSI) guidances (e.g., CLSI. Performance standards for antimicrobial susceptibility testing; nineteenth information supplement. CLSI document M100-S19, CLSI, 940 West Valley Road, Suite 1400, Wayne, Pa. 19087-1898, USA, 2009). Briefly, frozen bacterial strains were thawed and subcultured onto Mueller Hinton Broth (MHB) or other appropriate media (Streptococcus requires blood and Haemophilus requires hemin and NAD). Following incubation overnight, the strains were subcultured onto Mueller Hinton Agar and again incubated overnight. […] Isolated colonies were selected to prepare a starting inoculum equivalent to a 0.5 McFarland standard. […] Test compounds were prepared by dilution in sterile water to a final concentration of 5.128 mg/mL. Antibiotics (stored frozen, thawed and used within 3 hours of thawing) and compounds were further diluted to the desired working concentrations.
# (§3) The assays were run as follows. Fifty μL of MHB was added to wells 2-12 of a 96-well plate. One hundred μL of appropriately diluted antibiotics was added to well 1. Fifty μL of antibiotics was removed from well 1 and added to well 2 and the contents of well 2 mixed by pipetting up and down five times. Fifty μL of the mixture in well 2 was removed and added to well 3 and mixed as above. Serial dilutions were continued in the same manner through well 12. Fifty μL was removed from well 12 so that all contained 50 μL. Fifty μL of the working inoculum was then added to all test wells. A growth control well was prepared by adding 50 μL of working inoculum and 50 μL of MHB to an empty well. The plates were then incubated at 37° C. overnight, removed from the incubator and each well was read on a plate reading mirror. The lowest concentration (MIC) of test compound that inhibited the growth of the bacteria was recorded.
# PA 689 = experiment: MIC assay, PA689; settings: Pseudomonas aeruginosa, read-out: MIC PA 689
# Protocol: as §1, §2, §3
structure (smiles),measurement,setting,value
"CN(C)c1cc(NC(=O)CNC(C)(C)C)c(O)c2c1C[C@H]1C[C@H]3[C@H](N(C)C)C(O)=C(C(N)=O)C(=O)[C@@]3(O)C(O)=C1C2=O [Tigecycline, tigecycline]",MIC,"[1]; read-out: MIC SA 101 292 13, S. aureus ATCC 29213, MSSA, Table 6",0.063 µg/mL
same,MIC,"[1]; read-out: MIC SA 101 29213, S. aureus ATCC 29213, MSSA, Table 4",0.063 µg/mL
same,MIC,"[1]; read-out: MIC SA 101 29213, S. aureus ATCC 29213, MSSA, Table 5",0.0625 µg/mL
same,MIC,"[1]; read-out: MIC SA 101 29213, S. aureus ATCC 29213, MSSA, Table 7",0.06 µg/mL
same,MIC,"[1]; read-out: MIC SA 101 29213, control compounds",0.06 µg/mL
same,MIC,"[1]; read-out: MIC SA 101 29213, control compounds, numeric",0.06 µg/mL
same,MIC,[2]; read-out: MIC SA 161 MRSAtetM,0.125 µg/mL
same,MIC,[2]; read-out: MIC SA 161 tet M,0.125 µg/mL
same,MIC,[2]; read-out: MIC SA 161 tetM,0.13 µg/mL
same,MIC,"[3]; read-out: MIC SA 158 tetK, S. aureus tet(K), Table 4",0.063 µg/mL
same,MIC,"[3]; read-out: MIC SA 158 tetK, S. aureus tet(K), Table 5",0.06 µg/mL
same,MIC,"[3]; read-out: MIC SA 158 tetK, S. aureus tet(K), Table 6",0.063 µg/mL
same,MIC,"[3]; read-out: MIC SA 158 tetK, S. aureus tet(K), Table 7",0.06 µg/mL
same,MIC,"[3]; read-out: MIC SA 158 tetK, control compounds",0.06 µg/mL
same,MIC,"[3]; read-out: MIC SA 158 tetK, control compounds, numeric",0.06 µg/mL
same,MIC,[4]; read-out: MIC EF 327 tet M,0.063 µg/mL
same,MIC,[4]; read-out: MIC EF 327 tetM,0.06 µg/mL
same,MIC,[5],0.016 µg/mL
same,MIC,"[6]; read-out: MIC SP 160 tet M, S. pneumoniae tet(M), Table 6",0.015 µg/mL
same,MIC,"[6]; read-out: MIC SP 160 tetM, S. pneumoniae tet(M), Table 4",0.016 µg/mL
same,MIC,"[6]; read-out: MIC SP 160 tetM, S. pneumoniae tet(M), Table 5",0.02 µg/mL
same,MIC,"[6]; read-out: MIC SP 160 tetM, S. pneumoniae tet(M), Table 7",0.02 µg/mL
same,MIC,"[6]; read-out: MIC SP 160 tetM, control compounds",0.02 µg/mL
same,MIC,"[6]; read-out: MIC SP 160 tetM, control compounds, numeric",0.02 µg/mL
same,MIC,[7]; read-out: MIC SP 312,0.02 µg/mL
same,MIC,[7]; read-out: MIC SP 312 tet M,0.015 µg/mL
same,MIC,[8],1 µg/mL
same,MIC,"[9]; ATCC25922, read-out: MIC EC 07 25922, E. coli ATCC 25922, Table 7",0.03 µg/mL
same,MIC,"[9]; ATCC25922, read-out: MIC EC 107 259 22, E. coli ATCC 25922, Table 6",0.03 µg/mL
same,MIC,"[9]; ATCC25922, read-out: MIC EC 107 25922, E. coli ATCC 25922, Table 4",0.031 µg/mL
same,MIC,"[9]; ATCC25922, read-out: MIC EC 107 25922, E. coli ATCC 25922, Table 5",0.03 µg/mL
same,MIC,"[9]; ATCC25922, read-out: MIC EC 107 25922, control compounds",0.03 µg/mL
same,MIC,"[9]; ATCC25922, read-out: MIC EC 107 25922, control compounds, numeric",0.03 µg/mL
same,MIC,[10],0.5 µg/mL
same,MIC,[11],0.25 µg/mL
same,MIC,[12],2 µg/mL
same,MIC,[12]; read-out: MIC EC 603 tetA,2 µg/mL
same,MIC,"[13]; MG1655, read-out: MIC EC 878 toIC, E. coli MG1655 tolC::kan, Table 6",0.031 µg/mL
same,MIC,"[13]; MG1655, read-out: MIC EC 878 toIC, E. coli MG1655 tolC::kan, Table 7",0.03 µg/mL
same,MIC,"[13]; MG1655, read-out: MIC EC 878 toIC, control compounds",0.03 µg/mL
same,MIC,"[13]; MG1655, read-out: MIC EC 878 tolC, control compounds, numeric",0.03 µg/mL
same,MIC,[14],1 µg/mL
same,MIC,[15]; read-out: MIC PM 385,4 µg/mL
same,MIC,[15]; read-out: MIC PM 385 CTX-M15,4 µg/mL
same,MIC,[16],8 µg/mL
same,MIC,[17],32 µg/mL
same,MIC,[17]; read-out: MIC PA 669,32 µg/mL
same,MIC,[18],32 µg/mL
same,MIC,[18]; read-out: MIC PA 693,33 µg/mL
same,MIC,[19],33 µg/mL
same,MIC,[19]; read-out: MIC PA 1145,16 µg/mL
same,MIC,[19]; read-out: MIC PA 1145 Vivi- source,16 µg/mL
same,MIC,[20],0.25 µg/mL
same,MIC,[21],1 µg/mL
same,MIC,[21]; read-out: MIC SM 256,1 µg/mL
same,MIC KP 457 CTX- M-15,[22]; Table 6,1 µg/mL
same,MIC KP 457 CTX- M-15,[22]; Table 7,1 µg/mL
same,MIC KP 457 CTX-M-15,[22]; control compounds,1 µg/mL
same,MIC KP 457,"[22]; control compounds, numeric",1 µg/mL
same,MIC KP 194 7E+05,KP 194 7E+05,8 μg/mL
same,MIC,PA 689,1 µg/mL
